Test results published in US4181573A, “Process for the production of antibiotic X-14547” (Hoffmann-La Roche Inc., priority 1978, dated 1980).
Converted amounts (≈) assume the structure as drawn. “And” between values parts separate entries of the source, which are not always exact repeats. Identical values can stand only once.

How the values were obtained:
[1] = tested on: Bacillus sp. TA ATCC 27860; assay: Antimicrobial activity of co-metabolite (M.I.C.); format: cell-based; settings: ATCC27860
Description: (§1) *Minimum inhibitory concentration per ml. in mcg.

[2] = tested on: Escherichia coli ATCC 27856; assay: Antimicrobial activity of co-metabolite (M.I.C.); format: cell-based; settings: ATCC27856
Description: as §1

[3] = tested on: Klebsiella pneumoniae ATCC 27858; assay: Antimicrobial activity of co-metabolite (M.I.C.); format: cell-based; settings: ATCC27858
Description: as §1

[4] = tested on: Paecilomyces varioti ATCC 26820; assay: Antimicrobial activity of co-metabolite (M.I.C.); format: cell-based; settings: ATCC26820
Description: as §1

[5] = tested on: Pseudomonas aeruginosa ATCC 8709; assay: Antimicrobial activity of co-metabolite (M.I.C.); format: cell-based; settings: ATCC8709
Description: as §1

[6] = tested on: Staphylococcus aureus ATCC 6538P; assay: Antimicrobial activity of co-metabolite (M.I.C.); format: cell-based; settings: ATCC6538P
Description: as §1

gram-positive bacteria = assay: Growth of gram-positive bacteria (summary in words); format: cell-based
[7] = Oral toxicity (LD50) in mice; settings: mouse, in vivo
[8] = tested on: Bacillus megaterium ATCC 8011; assay: Antimicrobial activity, agar well diffusion assay; format: cell-based; settings: Priestia megaterium, ATCC8011, lowest twofold dilution giving a zone of inhibition, read-out: Minimum inhibitory concentration
Sarcina lutea ATCC 9341 = assay: Antimicrobial activity, agar well diffusion assay; format: cell-based; settings: Micrococcus luteus, ATCC9341, lowest twofold dilution giving a zone of inhibition, read-out: Minimum inhibitory concentration
[9] = tested on: Bacillus species E ATCC 27859; assay: Antimicrobial activity, agar well diffusion assay; format: cell-based; settings: ATCC27859, lowest twofold dilution giving a zone of inhibition, read-out: Minimum inhibitory concentration
[10] = tested on: Bacillus subtilis NRRL 558; assay: Antimicrobial activity, agar well diffusion assay; format: cell-based; settings: NRRL558, lowest twofold dilution giving a zone of inhibition, read-out: Minimum inhibitory concentration
[11] = tested on: Staphylococcus aureus ATCC 6538P; assay: Antimicrobial activity, agar well diffusion assay; format: cell-based; settings: ATCC6538P, lowest twofold dilution giving a zone of inhibition, read-out: Minimum inhibitory concentration
[12] = tested on: Bacillus species TA ATCC 27860; assay: Antimicrobial activity, agar well diffusion assay; format: cell-based; settings: ATCC27860, lowest twofold dilution giving a zone of inhibition, read-out: Minimum inhibitory concentration
[13] = tested on: Mycobacterium phlei ATCC 355; assay: Antimicrobial activity, agar well diffusion assay; format: cell-based; settings: Mycolicibacterium phlei, ATCC355, lowest twofold dilution giving a zone of inhibition, read-out: Minimum inhibitory concentration
[14] = tested on: Streptomyces cellulosae ATCC 3313; assay: Antimicrobial activity, agar well diffusion assay; format: cell-based; settings: ATCC3313, lowest twofold dilution giving a zone of inhibition, read-out: Minimum inhibitory concentration
[15] = tested on: Paecilomyces varioti ATCC 26820; assay: Antimicrobial activity, agar well diffusion assay; format: cell-based; settings: ATCC26820, lowest twofold dilution giving a zone of inhibition, read-out: Minimum inhibitory concentration
[16] = tested on: volatile fatty acids produced in the rumen; assay: In vitro rumen fermentation, ratio of volatile fatty acids (GLC); set-up: species or system steer; settings: 4 hrs.; for μmoles C3 /μmoles C2 + μmoles nC4, means / μmoles C3 /μmoles C2 + μmoles nC4, replicate fermentations: 38° C.
Description: Rumen fluid is obtained from a steer with a fistulated rumen. The steer is maintained on the following ration:
The rumen fluid is immediately strained through a #30 mesh sieve. For each fermentation, 75 ml of the resulting fluid is added to a 250 ml flask containing the following:
1 g of 80%:20% finely ground grain: hay ration;
1 ml of an 18% aqueous glucose solution (1 millimole per flask);
1.5 ml of a 3.1% aqueous urea solution (0.76 millimole per flask);
60 micromoles of each of the 10 essential amino acids (arginine, histidine, leucine, methionine, threonine, valine, lysine, isoleucine, phenylalanine,tryptophan);
Carbon dioxide is continuously passed through the hood. […] Three ml of the supernate is added to 1 ml of a 25% metaphosphoric acid solution containing 23 micromoles 2-methyl valeric acid as an internal standard. The resulting fluid is permitted to sit at room temperature for 30 minutes. The fluid is filtered through a […] Millipore filter and refrigerated until gas-liquid chromatographic analyses for volatile fatty acids.

ruminant animals = assay: Efficiency of feed utilization on oral administration; format: in vivo; settings: administered orally
[17] = tested on: DOCA-Na Sprague Dawley (Charles River) male rats; assay: Antihypertensive activity in DOCA-Na hypertensive rats, systolic blood pressure; format: in vivo, rat; settings: 10 MG/KG × 3 days PO; for SYSTOLIC BLOOD PRESSURE, PCT CHANGE: change from pre drug controls
Description: (§2) Antihypertensive activity is tested for in the DOCA-Na Sprague Dawley (Charles River) male rats weighing 170-210 grams. DOCA-Na hypertension is produced by unilateral nephrectomy followed by subcutaneous implantation of a 25 mg. desoxycortico sterone (DOCA) pellet. Animals are placed in individual cages receiving 0.9% sodium chloride solution and rat chow diet ad libitum. Two weeks are allowed to elapse from the time of surgery for development of hypertension, i.e., systolic blood pressure of at least 150 mm. Hg.
(§3) Systolic blood pressure and heart rate are measured indirectly from the tail of unanesthetized rats, using a pneumatic pulse transducer. Control readings are taken prior to drug and at 1, 3, 6 and 24 hours post drug.
(§4) The results are expressed as absolute values and percent changes from controls.

[18] = tested on: DOCA-Na Sprague Dawley (Charles River) male rats; assay: Cardiac rate in DOCA-Na hypertensive rats; format: in vivo, rat; settings: 10 MG/KG × 3 days PO; for CARDIAC RATE, PCT CHANGE: change from pre drug controls; for CARDIAC RATE, individual rats: rats 1-6
Description: as §2, §3, §4

Structure (SMILES): CCC1(OC)C(=O)Nc2ccccc21 (stereo not drawn) [3-ethyl-1,3-dihydro-3-methoxy-2H-indole-2-one]
- MIC [1]: 2.5 µg/mL
- MIC [2]: 5 µg/mL
- MIC [3]: 5 µg/mL
- MIC [4]: 2.5 µg/mL
- MIC [5]: 5 µg/mL
- MIC [6]: 5 µg/mL
- effect on growth of gram-positive bacteria (gram-positive bacteria): adversely affecting the growth of certain gram-positive bacteria

Structure (SMILES): CCC(=CC=CC1C=CC2C(CC)CCC2C1C(=O)c1ccc[nH]1)C1OC(C(C)C(=O)O)CCC1C [Antibiotic X-14547, α-(R), 5 (S)-dimethyl-6(R)-{1-ethyl-4-[4-(R)-(2-pyrrolyl-carbonyl)-1(S)-ethyl-3a(R),4,5(R),7a(R)-tetrahydroindan-5-yl]-1(E), 3(E)-butadienyl}tetrahydropyran-2-acetic acid]
- LD50 at 24 h [7]: 129 mg/kg
- MIC [8]: 0.1 µg/mL (≈ 0.203 µM)
- MIC (Sarcina lutea ATCC 9341): 0.1 µg/mL (≈ 0.203 µM)
- MIC [9]: 0.2 µg/mL (≈ 0.405 µM)
- MIC [10]: 0.1 µg/mL (≈ 0.203 µM)
- MIC [11]: 0.2 µg/mL (≈ 0.405 µM)
- MIC [12]: 0.2 µg/mL (≈ 0.405 µM)
- MIC [13]: 3.1 µg/mL (≈ 6.28 µM)
- MIC [14]: 0.8 µg/mL (≈ 1.62 µM)
- MIC [15]: 6.3 µg/mL (≈ 12.8 µM)
- effect on growth of gram-positive bacteria (gram-positive bacteria): adversely affecting the growth of certain gram-positive bacteria
- ratio of propionate (C3) to acetates and n-butyrates ([16]; 10 and 25 ppm, versus controls): significantly improved
- μmoles C3 /μmoles C2 + μmoles nC4, means ([16]; 10 ppm): 0.491
- μmoles C3 /μmoles C2 + μmoles nC4, replicate fermentations ([16]; 10 ppm): 0.493 and 0.489
- μmoles C3 /μmoles C2 + μmoles nC4, means ([16]; 25 ppm): 0.521
- μmoles C3 /μmoles C2 + μmoles nC4, replicate fermentations ([16]; 25 ppm): 0.531 and 0.510
- efficiency of feed utilization (ruminant animals): increases the efficiency of feed utilization in ruminant animals
- SYSTOLIC BLOOD PRESSURE, MEAN ([17]; day 1): 188.3 mmHg
- SYSTOLIC BLOOD PRESSURE, PCT CHANGE ([17]; day 1): -9.0 PCT
- SYSTOLIC BLOOD PRESSURE, individual rats ([17]; day 1, rats 1-6): 216 mmHg and 178 mmHg and 184 mmHg and 198 mmHg and 151 mmHg and 203 mmHg
- SYSTOLIC BLOOD PRESSURE, MEAN ([17]; day 2, first line): 185.7 mmHg
- SYSTOLIC BLOOD PRESSURE, PCT CHANGE ([17]; day 2, first line): -10.3 PCT
- SYSTOLIC BLOOD PRESSURE, individual rats ([17]; day 2, first line, rats): 211 mmHg and 201 mmHg and 176 mmHg and 168 mmHg and 190 mmHg
- SYSTOLIC BLOOD PRESSURE, MEAN ([17]; day 2, second line): 171.3 mmHg
- SYSTOLIC BLOOD PRESSURE, PCT CHANGE ([17]; day 2, second line): -17.1 PCT
- SYSTOLIC BLOOD PRESSURE, individual rats ([17]; day 2, second line, rats 1-6): 184 mmHg and 174 mmHg and 161 mmHg and 165 mmHg and 179 mmHg
- SYSTOLIC BLOOD PRESSURE, MEAN ([17]; day 3, first line): 205.0 mmHg
- SYSTOLIC BLOOD PRESSURE, PCT CHANGE ([17]; day 3, first line): -0.7 PCT
- SYSTOLIC BLOOD PRESSURE, individual rats ([17]; day 3, first line, rats 1-6): 214 mmHg and 195 mmHg and 193 mmHg and 219 mmHg and 198 mmHg and 211 mmHg
- SYSTOLIC BLOOD PRESSURE, MEAN ([17]; day 3, second line): 196.0 mmHg
- SYSTOLIC BLOOD PRESSURE, PCT CHANGE ([17]; day 3, second line): -5.2 PCT
- SYSTOLIC BLOOD PRESSURE, individual rats ([17]; day 3, second line, rats 1-6): 210 mmHg and 177 mmHg and 173 mmHg and 206 mmHg and 190 mmHg and 220 mmHg
- SYSTOLIC BLOOD PRESSURE, MEAN ([17]; day 4): 202.8 mmHg
- SYSTOLIC BLOOD PRESSURE, PCT CHANGE ([17]; day 4): -1.7 PCT
- SYSTOLIC BLOOD PRESSURE, individual rats ([17]; day 4, rats 1-6): 197 mmHg and 172 mmHg and 229 mmHg and 212 mmHg and 179 mmHg and 228 mmHg
- CARDIAC RATE, MEAN ([18]; day 1): 420.0 BEATS/MIN
- CARDIAC RATE, PCT CHANGE ([18]; day 1): 2.0 PCT
- CARDIAC RATE, individual rats ([18]; day 1): 480 BEATS/MIN and 360 BEATS/MIN and 450 BEATS/MIN and 440 BEATS/MIN and 390 BEATS/MIN and 400 BEATS/MIN
- CARDIAC RATE, MEAN ([18]; day 2, first line): 400.0 BEATS/MIN
- CARDIAC RATE, PCT CHANGE ([18]; day 2, first line): -2.6 PCT
- CARDIAC RATE, individual rats ([18]; day 2, first line): 430 BEATS/MIN and 320 BEATS/MIN and 360 BEATS/MIN and 490 BEATS/MIN and 370 BEATS/MIN
- CARDIAC RATE, MEAN ([18]; day 2, second line): 378.3 BEATS/MIN
- CARDIAC RATE, PCT CHANGE ([18]; day 2, second line): -8.1 PCT
- CARDIAC RATE, individual rats ([18]; day 2, second line): 420 BEATS/MIN and 310 BEATS/MIN and 400 BEATS/MIN and 380 BEATS/MIN and 450 BEATS/MIN
- CARDIAC RATE, MEAN ([18]; day 3, first line): 363.3 BEATS/MIN
- CARDIAC RATE, PCT CHANGE ([18]; day 3, first line): -11.3 PCT
- CARDIAC RATE, individual rats ([18]; day 3, first line): 380 BEATS/MIN and 360 BEATS/MIN and 370 BEATS/MIN and 350 BEATS/MIN
- CARDIAC RATE, MEAN ([18]; day 3, second line): 365.0 BEATS/MIN
- CARDIAC RATE, PCT CHANGE ([18]; day 3, second line): -10.8 PCT
- CARDIAC RATE, individual rats ([18]; day 3, second line): 370 BEATS/MIN and 360 BEATS/MIN and 350 BEATS/MIN and 380 BEATS/MIN
- CARDIAC RATE, MEAN ([18]; day 4): 356.7 BEATS/MIN
- CARDIAC RATE, PCT CHANGE ([18]; day 4): -13.1 PCT
- CARDIAC RATE, individual rats ([18]; day 4): 370 BEATS/MIN and 320 BEATS/MIN and 360 BEATS/MIN and 350 BEATS/MIN and 340 BEATS/MIN and 400 BEATS/MIN
